Experimental data taken from US11596639B2, “Substituted indole Mcl-1 inhibitors” (Vanderbilt University, priority 2016, dated 2023).
pKi: −log10 of the molar value. Like-named read-outs stand apart in the source and are kept apart here.

Assays:
Mcl-1 = Mcl-1 (Homo sapiens (Human), UniProt Q07820); experiment: Fluorescence polarization anisotropy (FPA) competition assay, FITC-Bak or FITC-Bim BH3 peptide; assay type: binding; details: read-out: Ki for Inhibition of Mcl-1 by FPA assay
[1] = test system: H929 human cancer cell lines; experiment: Cellular viability / proliferation (Cell TiterGlo, 72 h); assay type: cell-based
Outline: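 1,000 cells/well, 10% FBS medium; compound added at 24 h, 2-fold dilutions from 50 μM top, DMSO <1% final. 72 h exposure, CellTiterGlo 30 min RT dark, luminescence read. IC50 by 4-parameter fit.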

[2] = Homo sapiens, NCI-H929, 72 h, read-out: GI50 on cellular proliferation of H929 human cancer cell lines, H929 cells, 72 h, Cell TiterGlo, 10% FBS

Mcl-1, sequence (Q07820 172-327): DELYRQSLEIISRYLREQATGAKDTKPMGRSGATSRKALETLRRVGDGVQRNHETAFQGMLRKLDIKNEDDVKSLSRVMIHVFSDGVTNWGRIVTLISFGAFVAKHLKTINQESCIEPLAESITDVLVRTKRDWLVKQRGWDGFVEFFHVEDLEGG

Cc1cccc(Cn2c(C(=O)O)cc3cccc(N4C[C@@H](C)n5c(c(CCCOc6cc(C)c(Cl)c(C)c6)c6ccc(Cl)c(-c7c(C)nn(C)c7C)c65)C4=O)c32)n1 [Example 381, (R)-7-(7-Chloro-10-(3-(4-chloro-3,5-dimethylphenoxy)propyl)-4-methyl-1-oxo-6-(1,3,5-trimethyl-1H-pyrazol-4-yl)-3,4-dihydropyrazino[1,2-a]indol-2(1H)-yl)-1-((6-methylpyridin-2-yl)methyl)-1H-indole-2-carboxylic acid]
pKi (Mcl-1): 8.59
GI50 [1, 2]: 0.25 µM

Cc1cc(OCCCc2c3n(c4c(-c5c(C)nn(C)c5C)c(Cl)ccc24)[C@H](C)CN(c2cn(COCC[Si](C)(C)C)c4ccc(C(=O)O)cc24)C3=O)cc(C)c1Cl [Example 231, (R)-3-(7-Chloro-10-(3-(4-chloro-3,5-dimethylphenoxy)propyl)-4-methyl-1-oxo-6-(1,3,5-trimethyl-1H-pyrazol-4-yl)-3,4-dihydropyrazino[1,2-a]indol-2(1H)-yl)-1-((2-(trimethylsilyl)ethoxy)methyl)-1H-indole-5-carboxylic acid]
pKi (Mcl-1): 8.92
GI50 [1, 2]: 2.7 µM

Cc1cc(OCCCc2c3n(c4c(-c5c(C)nn(C)c5C)c(Cl)ccc24)[C@H](C)CN(c2cccc4c2cc(C(=O)O)n4C)C3=O)cc(C)c1Cl [Example 113, (R)-4-(7-Chloro-10-(3-(4-chloro-3,5-dimethylphenoxy)propyl)-4-methyl-1-oxo-6-(1,3,5-trimethyl-1H-pyrazol-4-yl)-3,4-dihydropyrazino[1,2-a]indol-2(1H)-yl)-1-methyl-1H-indole-2-carboxylic acid]
pKi (Mcl-1): > 9.00
GI50 [1, 2]: 0.33 µM

Cc1cc(OCCCc2c3n(c4c(-c5c(C)nn(C)c5C)c(Cl)ccc24)[C@H](C)CN(c2cccc4c(C(=O)O)cn(C)c24)C3=O)cc(C)c1Cl [Example 69, (R)-7-(7-Chloro-10-(3-(4-chloro-3,5-dimethylphenoxy)propyl)-4-methyl-1-oxo-6-(1,3,5-trimethyl-1H-pyrazol-4-yl)-3,4-dihydropyrazino[1,2-a]indol-2(1H)-yl)-1-methyl-1H-indole-3-carboxylic acid]
pKi (Mcl-1): > 9.00
GI50 ([1]; read-out: GI50 on cellular proliferation of H929 human cancer cell lines, H929 cells, 72 h, Cell TiterGlo, 10% FBS): < 0.2 µM

Cc1cc(OCCCc2c3n(c4c(-c5c(C)nn(C)c5C)c(Cl)ccc24)[C@H](C)CN(c2nccc4cc(C(N)=O)ccc24)C3=O)cc(C)c1Cl [Example 375, (R)-1-(7-Chloro-10-(3-(4-chloro-3,5-dimethylphenoxy)propyl)-4-methyl-1-oxo-6-(1,3,5-trimethyl-1H-pyrazol-4-yl)-3,4-dihydropyrazino[1,2-a]indol-2(1H)-yl)isoquinoline-6-carboxamide]
pKi (Mcl-1): 8.00
GI50 [1, 2]: 2.5 µM

COc1ccnc(-c2ccc3c(c2)c(N2C[C@@H](C)n4c(c(CCCOc5cc(C)c(Cl)c(C)c5)c5ccc(Cl)c(-c6c(C)nn(C)c6C)c54)C2=O)cn3C)n1 [Example 464, (R)-7-Chloro-10-(3-(4-chloro-3,5-dimethylphenoxy)propyl)-2-(5-(4-methoxypyrimidin-2-yl)-1-methyl-1H-indol-3-yl)-4-methyl-6-(1,3,5-trimethyl-1H-pyrazol-4-yl)-3,4-dihydropyrazino[1,2-a]indol-1(2H)-one]
pKi (Mcl-1): 8.46
GI50 [1, 2]: 0.48 µM

Cc1cc(OCCCc2c3n(c4c(-c5c(C)nn(C)c5C)c(Cl)ccc24)[C@H](C)CN(c2ccnc4ccc(C(=O)O)cc24)C3=O)cc(C)c1Cl [Example 172, (R)-4-(7-Chloro-10-(3-(4-chloro-3,5-dimethylphenoxy)propyl)-4-methyl-1-oxo-6-(1,3,5-trimethyl-1H-pyrazol-4-yl)-3,4-dihydropyrazino[1,2-a]indol-2(1H)-yl)quinoline-6-carboxylic acid]
pKi (Mcl-1): > 9.00
GI50 [1, 2]: 0.32 µM

COCCn1cc(C(=O)O)c2c(N3C[C@@H](C)n4c(c(CCCOc5cc(C)c(Cl)c(C)c5)c5ccc(Cl)c(-c6c(C)nn(C)c6C)c54)C3=O)cccc21 [Example 181, 4-[(4R)-7-chloro-10-[3-(4-chloro-3,5-dimethyl-phenoxy)propyl]-4-methyl-1-oxo-6-(1,3,5-trimethylpyrazol-4-yl)-3,4-dihydropyrazino[1,2-a]indol-2-yl]-1-(2-methoxyethyl)indole-3-carboxylic acid]
pKi (Mcl-1): 8.85
GI50 [1, 2]: 2 µM

Cc1cc(OCCCc2c3n(c4c(-c5c(C)nn(C)c5C)c(Cl)ccc24)[C@H](C)CN(c2cn(CCN4CCOCC4)c4cc(C(=O)O)ccc24)C3=O)cc(C)c1Cl [Example 292, (R)-3-(7-chloro-10-(3-(4-chloro-3,5-dimethylphenoxy)propyl)-4-methyl-1-oxo-6-(1,3,5-trimethyl-1H-pyrazol-4-yl)-3,4-dihydropyrazino[1,2-a]indol-2(1H)-yl)-1-(2-morpholinoethyl)-1H-indole-6-carboxylic acid]
pKi (Mcl-1): > 9.00
GI50 [1, 2]: 0.69 µM

Cc1cc(OCCCc2c3n(c4c(-c5c(C)nn(C)c5C)c(Cl)ccc24)[C@H](C)CN(c2cc(OCCN4CCOCC4)cc4cc(C(=O)O)n(C)c24)C3=O)cc(C)c1Cl [Example 458, (R)-7-(7-Chloro-10-(3-(4-chloro-3,5-dimethylphenoxy)propyl)-4-methyl-1-oxo-6-(1,3,5-trimethyl-1H-pyrazol-4-yl)-3,4-dihydropyrazino[1,2-a]indol-2(1H)-yl)-1-methyl-5-(2-morpholinoethoxy)-1H-indole-2-carboxylic acid]
pKi (Mcl-1): 8.92
GI50 [1, 2]: 0.29 µM

Cc1cc(OCCCc2c3n(c4c(-c5c(C)nn(C)c5C)c(Cl)ccc24)[C@H](C)CN(c2cc(C(=O)O)c4ccccc4c2)C3=O)cc(C)c1Cl [Example 188, (R)-3-(7-Chloro-10-(3-(4-chloro-3,5-dimethylphenoxy)propyl)-4-methyl-1-oxo-6-(1,3,5-trimethyl-1H-pyrazol-4-yl)-3,4-dihydropyrazino[1,2-a]indol-2(1H)-yl)-1-naphthoic acid]
pKi (Mcl-1): 8.19
GI50 [1, 2]: 2.7 µM

Cc1cc(OCCCc2c3n(c4c(-c5c(C)nn(C)c5C)c(Cl)ccc24)[C@H](C)CN(c2cc(OCCN(C)C)cc4cc(C(=O)O)n(C)c24)C3=O)cc(C)c1Cl [Example 455, (R)-7-(7-Chloro-10-(3-(4-chloro-3,5-dimethylphenoxy)propyl)-4-methyl-1-oxo-6-(1,3,5-trimethyl-1H-pyrazol-4-yl)-3,4-dihydropyrazino[1,2-a]indol-2(1H)-yl)-5-(2-(dimethylamino)ethoxy)-1-methyl-1H-indole-2-carboxylic acid]
pKi (Mcl-1): > 9.00
GI50 [1, 2]: 0.22 µM

COc1cc(C(=O)O)cc(N2CCCn3c(c(CCCOc4cc(C)c(Cl)c(C)c4)c4ccc(Cl)c(-c5c(C)nn(C)c5C)c43)C2=O)c1OCCCO [Example 67, 3-[8-Chloro-11-[3-(4-chloro-3,5-dimethyl-phenoxy)propyl]-1-oxo-7-(1,3,5-trimethylpyrazol-4-yl)-4,5-dihydro-3H-[1,4]diazepino[1,2-a]indol-2-yl]-4-(3-hydroxypropoxy)-5-methoxy-benzoic acid]
pKi (Mcl-1): > 9.00
GI50 [1, 2]: 8.5 µM

Cc1cc(OCCCc2c3n(c4c(-c5c(C)nn(C)c5C)c(Cl)ccc24)[C@H](C)CN(c2c(C)n(C)c4ccc(C(=O)O)cc24)C3=O)cc(C)c1Cl [Example 275, 3-[(4R)-7-chloro-10-[3-(4-chloro-3,5-dimethyl-phenoxy)propyl]-4-methyl-1-oxo-6-(1,3,5-trimethylpyrazol-4-yl)-3,4-dihydropyrazino[1,2-a]indol-2-yl]-1,2-dimethyl-indole-5-carboxylic acid]
pKi (Mcl-1): > 9.00
GI50 [1, 2]: 0.37 µM
